Results from patent publication US10660965B2, “Methods of enhancing drug delivery and effectiveness of therapeutic agents” (priority 2010, dated 2020).

Tested on: Patient-derived low passage pancreatic tumor xenografts
Experiment: Tumor regression in patient-derived pancreatic tumor xenografts
Format: in vivo, nude mice
Conditions: 11 xenograft cases; ABI 30 mg/kg i.v. daily x5, GEM 100 mg/kg i.p. twice a week for 4 weeks
Protocol: Eleven Patient-derived low passage pancreatic tumor xenografts were implanted (s.c) in nude mice. Mice with tumor size of ˜200 mm3 were randomized to four treatment groups (7-10 tumors/group) and treated with 1) Vehicle; 2) Abraxane® (ABI) 30 mg/kg once daily i.v for five consecutive days; 3) Gemcitabine (GEM) 100 mg/kg twice a week for 4 weeks i.p and 4) GEM+ABI in the above mentioned dose and frequency for 4 weeks. Tumor size was measured twice per week using a digital caliper. Number of tumors that regressed more than 50% of its initial size in each tumor xenografts were noted. Extent of stromal desmoplasia and endothelial cell content in control and treated xenografts were determined by Masson's Trichrome staining, IHC and qRTPCR.

Nc1ccn([C@@H]2O[C@H](CO)[C@@H](O)C2(F)F)c(=O)n1 [GEM, gemcitabine]
cases that produced >50% regression of tumor size: 2 of 11
